Results on 9 compounds are retold here after US20090093618A1, “STREPTAVIDIN-BIOTIN-LINK ANTIBODY-HAPTEN SYSTEM” (The Regents OF THE UNIVERSITY OF CALIFORNA, priority 2006, published 2009).

In one test the test system is 2D12.5. As to the kind of experiment: Relative binding curves of 2D12.5 for Y-DOTA isomers, Y-DTPA and sidechain variants (FIG. 16, 17). More on the design: species or system mouse. To be noted: for relative binding affinity for 2D12.5 (in words): coordinated metal Y^3+. The text has this:
FIG. 16 is a graphical display showing the relative binding curves of 2D12.5 for Y-DOTA isomers and Y-DTPA. 2D12.5 binds both the (R)- and (S)-isomer of 2-(4-nitrobenzyl)-DOTA when the coordinated metal is Y^3+ (the same behavior is expected for the other rare earths). The (S)-isomer confers Λ-helicity, while the (R)-isomer confers Δ-helicity to the acetate arms. […] Y-DOTA (no-sidearm) exists in solution as a racemic mixture of the coordination isomers.
FIG. 17 is a graphical display showing relative binding curves of Y-DOTA molecules with different sidechain locations. […] Evaluation of the crystal structure seems to indicate that shorter substitutions at the position may bind with higher affinity. Substitutions at other locations may yield reasonably high affinities as well. The (5-Amino-2-methoxy-phenyl)-carboxymethyl)-DOTA analyzed in this experiment was racemic, so it is not clear which isomer binds with higher affinity. The low pKa of the carboxymethyl proton makes it difficult to prepare a chirally pure molecule.

The test system of the next test is antibody 2D12.5. As to the kind of experiment: Competitive immunoassay (ELISA) of metal-DOTA complexes relative to Y-DOTA. In kind it is binding, mouse. As to conditions: 37° C.; for relative binding affinity compared with Y-DOTA (in words): 15 ions tested. The text has this:
FIG. 13 is graphical display showing the relative binding of metal-DOTA complexes to antibody 2D12.5. A representative set of competitive binding curves obtained from ELISA experiments described in Example 3 below. Error bars (representing the standard error of the mean) are shown, but are generally smaller than the data points.
To determine the metal selectivity of the antibody 2D12.5, a competitive immunoassay was used to measure the binding constants of multiple metal-DOTA complexes relative to Y^3+-DOTA.
We examined the monoclonal antibody 2D12.5, initially developed to bind specifically to Y-DOTA for targeted radiotherapy (see, e.g., Goodwin et al., Cancer Res. 54: 5937-5946 (1994)), in order to determine the scope of its activity. To assess the metal selectivity of antibody 2D12.5, a competitive immunoassay to measure the binding constants of various metal-DOTA complexes relative to the original Y^3+ complex was developed (FIG. 12). Briefly, 2D12.5 was incubated at 37° C. in the presence of immobilized Y-DOTA and a soluble metal-DOTA competitor. The metal-DOTA concentration was varied from μM to pM in order to determine the relative binding affinity of 2D12.5 for each metal chelate in comparison to Y-DOTA. Binding was measured by standard methods known to those of skill in the art. The DOTA analog used to evaluate binding was [S]-2-(p-nitrobenzyl)-DOTA, which is similar to the original antigen.

The next test relates to N85D_G54C 2D12.5 mutant. The test can be described thus: Permanent binding of metal-AABD and metal-NBD complexes to 2D12.5 Fab mutant N85D_G54C (Western blot). As to the method: Metallation of Chelates with stable metal cations. Metals tested in this experiment included Y, La, Lu, Sr and Sc. Stock chelate concentrations were measured using a Co-57 metal binding assay (Meares et al., Anal. Biochem. 142:68-78, 1984). Stock metal solutions (approximately 0.2 M) were prepared by dissolving the appropriate gravimetrically measured rare earth chloride salt in 0.05 M HCl. As an example, YCl3 (2.5 equivalents) was added to 25 μL of NBD ([…]) dissolved in 0.1 M tetramethylammonium acetate, and the pH was adjusted to 5 by the addition of triethylamine. The metallation was allowed to proceed overnight at 50° C. Samples were promptly frozen at −70° C., and metallation efficiency was assessed using a competitive metal-binding assay with Co-57.^3 Excess metal was scavenged with DTPA, which has very low affinity for the antibody (<<1%).
Metal-AABD and metal-NBD complexes were incubated with 2D12.5 Fab mutant N85D_G54C and samples denatured, reduced and separated by SDS-PAGE, as described for Y-90 in the previous examples. […]

In the case of `O=C(O)CN1CCN(CC(=O)O)CCN(CC(=O)O)[C@H](Cc2ccc([N+](=O)[O-])cc2)CN(CC(=O)O)CC1` [(R)-isomer of 2-(4-nitrobenzyl)-DOTA, 2-(4-nitrobenzyl)-DOTA], the “relative binding affinity for 2D12.5 (in words)” value in the test on 2D12.5 is listed as “decreases less than an order of magnitude”.

As to `O=C(O)CN(CCN(CC(=O)O)CC(=O)O)CCN(CC(=O)O)CC(=O)O` [DTPA], in the test on 2D12.5 (DTPA used to scavenge excess metal), the “affinity for the antibody” value is on record as below 1%.

For the compound `O=C([O-])CN1CCN(CC(=O)[O-])CCN(CC(=O)[O-])CCN(CC(=O)[O-])CC1.[Eu+3]` [Eu^3+], the “relative binding affinity compared with Y-DOTA (in words)” value in the test with antibody 2D12.5 is “strongest binders”.

Turning to `O=C([O-])CN1CCN(CC(=O)[O-])CCN(CC(=O)[O-])CCN(CC(=O)[O-])CC1.[Gd+3]` [Gd-DOTA], the “relative binding affinity compared with Y-DOTA (in words)” value in the test on antibody 2D12.5 is listed as “bind more tightly than the original Y^3+ complex”; in the test with antibody 2D12.5 (listed as Gd^3+), “strongest binders”.

As for `O=C(O)CN1CCN(CC(=O)O)CCN(CC(=O)O)C(Cc2ccc([N+](=O)[O-])cc2)CN(CC(=O)O)CC1` (stereo not shown) [NBD, [S]-2-(p-nitrobenzyl)-DOTA], the “permanent bond formation with N85D_G54C 2D12.5 mutant” value with N85D_G54C 2D12.5 mutant (Western blot, hybridoma-derived 2D12.5 as 1° stain) is listed as “negative”.

As to `O=C([O-])CN1CCN(CC(=O)[O-])CCN(CC(=O)[O-])CCN(CC(=O)[O-])CC1.[Tb+3]` [Tb-DOTA], the “relative binding affinity compared with Y-DOTA (in words)” value in the test on antibody 2D12.5 was “strongest binders”.

The compound `O=C([O-])CN1CCN(CC(=O)[O-])CCN(CC(=O)[O-])CCN(CC(=O)[O-])CC1.[Y+3]` [Y-DOTA] returned a Kd on antibody 2D12.5 (DOTA analog used was [S]-2-(p-nitrobenzyl)-DOTA) of 10 nM. Besides, the “relative binding affinity for 2D12.5 (in words)” value with 2D12.5 is “between that observed for the (S)- and (R)-isomers”.

With `O=C(O)CN1CCN(CC(=O)O)CCN(CC(=O)O)[C@@H](Cc2ccc([N+](=O)[O-])cc2)CN(CC(=O)O)CC1` [Y-NBD, (S)-2-(4-nitrobenzyl)-DOTA], the “relative binding affinity for 2D12.5 (in words)” value in the test on 2D12.5 is on record as “clearly stronger”; in the test with 2D12.5 (listed as (S)-isomer of 2-(4-nitrobenzyl)-DOTA), “preferred isomer for binding”. Also, the “binding strength of NBD complexes among the rare earths” value in the test on N85D_G54C 2D12.5 mutant (Western blots) is listed as “one of the strongest binders”.

For the compound “(5-Amino-2-methoxyphenyl)-carboxymethyl)-DOTA”, in the test with 2D12.5, the “relative binding affinity for 2D12.5 (in words)” value is reported as “still sufficiently strong”.
